Measured values published in patent US20070134744A1, “Epothilone resistant cell lines” (priority 2000, published 2007).
“Also recorded” adds a separate entry of the source.

How the values were obtained:
EA40 cells = test: MTS growth inhibition assay; format: cell-based; conditions: for IC50: EA40 cells
Method: Growth inhibition may be analyzed using conventional methods, for example a MTS assay (PROMEGA, Wis.) may be used. In this assay approximately 4000 cells per well are seeded in 96 well plates in MEM supplemented with 10% fetal calf serum and incubated at 37° C. in 5.0% CO2. After 24 hours, dilutions of drug (concentration range used is between 1 nM and 1000 nM) are added and cells are allowed to incubate with drug for an additional 72 hours. The MTS reagent mixed with PMS (MTS:PMS 20:1 according to manufacturer's instructions) is then added and absorbance quantitated using a Thermomax microplate reader system according to conventional methods (Molecular Devices, Sunnyvale, Calif.). […] Six assays per drug per plate are performed. […]
(§1) As such, epothilone resistant cells would have some degree of cross-resistance to other P-gp substrates that could be reversed by P-gp inhibitors. To investigate this possibility, the cytotoxicity of the P-gp substrates, vincristine, doxorubicine and vinblastine is determined against epothilone A resistant cells using the MTS assay. […] When EA20 and resistant MDA/T0.3 cells are incubated with TAXOL® or epothilone A in the presence of [3′-Desoxy-3′-oxo-MeBmt]^1-[Val]^2-Ciclosporin (PSC-833; a P-gp inhibitor which is disclosed in U.S. Pat. No. 5,525,590), the resistance of MDA/T0.3 cells to TAXOL® is reversed but no effect on the resistance of EA20 to epothilone A is observed.

297/C5/0 cells = format: cell-based, human; conditions: for RF (resistance factor: IC50 resistant cell line / IC50 parental KB-31): 297/C5/0 (EpoA selected), 72 hrs, average of three experiments; for resistance profile in words: 297/C5/0 vs parental KB-31
Method: (§2) Anti-proliferative assays are performed basically as described (Meyer et al., Int. J. Cancer 43:851 (1989)). Briefly, cells are seeded at 1.5×10^3 cells/well into 96-well microtiter plates and allowed to adhere by incubation overnight. Compounds are added in serial dilutions on day 1. The plates are then incubated for an additional 3 days, after which the cells are fixed with 3.3% v/v glutaraldehyde, washed with water and stained with 0.05% w/v methylene blue according to conventional methods. After washing, the dye is eluted with 3% HCl and the optical density measured at 665 nm with a SpectraMax Plus (Molecular Devices, Sunnyvale, Calif.) according to manufacturers instructions. IC50 values are determined by mathematical curve-fitting using the SoftPro2.6.1 program (Molecular Devices, Sunnyvale, Calif.) using the formula (OD treated−OD start)/(OD control−OD start)×100. […] IC50 determinations with the cell line 298/D4/40 are performed in the presence of 40 nM epothilone A.
(§3) Data in Table 4 are gathered according to the following methods: Cells (1×10^3) are seeded in 96-well plates and allowed to adhere for 24 hrs. Compounds are then added as two-fold serial dilutions and incubation continued for an additional 72 hrs. Cell numbers at the beginning and at the end of the experiment are estimated by methylene blue staining of cellular protein mass according to conventional methods. The net mass increase of vehicle-treated cells is set as 100% growth. The IC50 is determined as the drug concentration that leads to half-maximal growth inhibition compared to the control. The resistance factor (RF) for a particular drug is calculated by dividing the IC50 determined on the resistant cell line by that determined on the parental KB-31 cells. Data are presented as average±standard deviation (SD) of three separate experiments, except na=not applicable (n<3). Colchicine-selected KB-8511 cells overexpressing P-glycoprotein served as a reference for the classical multi-drug-resistant phenotype.

315/sc5.9 cells = format: cell-based, human; conditions: for RF (resistance factor: IC50 resistant cell line / IC50 parental KB-31): 315/sc5.9 (EpoB selected), 72 hrs, average of three experiments
Method: as §2, §3

298/D4/40 cells [1] = format: cell-based, human; conditions: for RF (resistance factor: IC50 resistant cell line / IC50 parental KB-31): 298/D4/40 (EpoA selected), 72 hrs, in the presence of 40 nM epothilone A; for resistance profile in words: 298/D4/40 vs parental KB-31
Method: as §2, §3

298/D4/40 cells [2] = test: Support of growth of epothilone A-dependent cells; format: cell-based, human; conditions: replacing epothilone A
Method: The epothilone resistant cell lines, EpoA320-80C, EpoA320/ND, 298/D4/40, 297/C5/0 and 315/sc5.9 are generated as disclosed above. […] A subclone, 298/D4/40, is adapted to grow in the presence of 40 nM epothilone A administered twice weekly (i.e. at every medium change). […] Furthermore, when 298/D4/40 cells are deprived of epothilone A, they growth arrest in the G2/M phase of the cell cycle and eventually die by apoptosis. […] Thus, this cell line could be employed in a drug screen, in which compounds with a potential microtubule-stabilizing mechanism could be identified by virtue of supporting the growth of epothilone A-deprived 298/D4/40 cells (see below). Nevertheless, upon prolonged incubation in the absence of epothilone A, we are able to isolate a subline that is still partially resistant to epothilone A, but has lost the drug-dependent phenotype of 298/D4/40, likely due to a cornpensating mutation. A subclone of this cell line, 297/C5/0, is used for further analyses.
Potential hits would be those that support the growth of 298/D4/40 cells similar to epothilone A (or paclitaxel) that could be included as a positive control in this assay.

KB-8511 cells [3] = format: cell-based, human; conditions: for RF (resistance factor: IC50 resistant cell line / IC50 parental KB-31): KB-8511 (Colch selected), 72 hrs, average of three experiments; for resistance profile in words: KB-8511 vs parental KB-31
Method: as §3

EA10 cells = test: MTS growth inhibition assay; format: cell-based; conditions: MTS, 72 hours drug, Table 1
Method: (§4) Growth inhibition may be analyzed using conventional methods, for example a MTS assay (PROMEGA, Wis.) may be used. In this assay approximately 4000 cells per well are seeded in 96 well plates in MEM supplemented with 10% fetal calf serum and incubated at 37° C. in 5.0% CO2. After 24 hours, dilutions of drug (concentration range used is between 1 nM and 1000 nM) are added and cells are allowed to incubate with drug for an additional 72 hours. The MTS reagent mixed with PMS (MTS:PMS 20:1 according to manufacturer's instructions) is then added and absorbance quantitated using a Thermomax microplate reader system according to conventional methods (Molecular Devices, Sunnyvale, Calif.). […] Six assays per drug per plate are performed.
(§5) Thus, at least two potential mechanisms of epothilone A resistance may exist—a lower resistance mechanism that is cross-resistant to TAXOL® and a higher, epothilone A specific resistance mechanism.

EA150 cells = test: MTS growth inhibition assay; format: cell-based; conditions: for IC50: MTS, 72 hours drug, Table 1
Method: as §4, §5

EA60 cells = test: MTS growth inhibition assay; format: cell-based; conditions: MTS, 72 hours drug, Table 1
Method: as §4, §5

MDA-MB-435 cells = test: MTS growth inhibition assay; format: cell-based
Method: as §4, §5

EA20 cells [4] = test: MTS growth inhibition assay; format: cell-based; conditions: MTS, 72 hours drug, Table 1
Method: as §4, §5

MDA/T0.3 cells [5] = test: Reversal of resistance by P-gp inhibitor (MTS assay); format: cell-based; conditions: MDA/T0.3 cells incubated with TAXOL in the presence of PSC-833
Method: as §4
(§6) As such, epothilone resistant cells would have some degree of cross-resistance to other P-gp substrates that could be reversed by P-gp inhibitors. To investigate this possibility, the cytotoxicity of the P-gp substrates, vincristine, doxorubicine and vinblastine is determined against epothilone A resistant cells using the MTS assay. […]

EA20 cells [6] = test: as above; format: cell-based; conditions: EA20 cells incubated with epothilone A in the presence of PSC-833
Method: as §4, §6

MDA/T0.3 cells [7] = test: MTS growth inhibition assay; format: cell-based; conditions: MDA/T0.3 cells, P-gp substrates; Table 2; read-out: IC50
Method: Growth inhibition may be analyzed using conventional methods, for example a MTS assay (PROMEGA, Wis.) may be used. In this assay approximately 4000 cells per well are seeded in 96 well plates in MEM supplemented with 10% fetal calf serum and incubated at 37° C. in 5.0% CO2. […] The MTS reagent mixed with PMS (MTS:PMS 20:1 according to manufacturer's instructions) is then added and absorbance quantitated using a Thermomax microplate reader system according to conventional methods (Molecular Devices, Sunnyvale, Calif.). […] Six assays per drug per plate are performed.
as §1
MDA/T0.3 is a clonal subline of MDA-MB-435 cells selected by increasing exposure of MDA-MB-435 cells to TAXOL®. MDA/T0.3 cells express high levels of P-glycoprotein and are resistant to a variety of chemically and functionally unrelated compounds. MDA/T0.3 cells could be sensitized to a variety of cytotoxic agents by treatment with the P-glycoprotein reversing agent PSC-833.

KB-8511 cells [8] = conditions: cited from earlier work

SMILES | IC50 (EA40 cells; MTS, 72 hours drug, Table 1) [nM] | RF (resistance factor: IC50 resistant cell line / IC50 parental KB-31) (297/C5/0 cells) | resistance profile in words (297/C5/0 cells) | RF (resistance factor: IC50 resistant cell line / IC50 parental KB-31) (315/sc5.9 cells) | RF (resistance factor: IC50 resistant cell line / IC50 parental KB-31) (298/D4/40 cells [1]) | resistance profile in words (298/D4/40 cells [1]) | support of growth of epothilone A-dependent cell line (298/D4/40 cells [2]) | RF (resistance factor: IC50 resistant cell line / IC50 parental KB-31) (KB-8511 cells [3]) | resistance profile in words (KB-8511 cells [3]) | IC50 (EA10 cells) [nM] | IC50 (EA150 cells) [nM] | IC50 (EA60 cells) [nM] | IC50 (EA20 cells [4]) [nM] | further results
C/C(=C\c1csc(C)n1)[C@@H]1C[C@@H]2O[C@]2(C)CCC[C@H](C)[C@H](O)[C@@H](C)C(=O)C(C)(C)[C@@H](O)CC(=O)O1 [Epothilone B, epothilone B] | 8 ± 3.5 | 7.7 | either partially or fully cross-resistant | 3.1 | 9.2 | either partially or fully cross-resistant | able to substitute for epothilone A | 0.9 | retain full activity | 3 ± 1.4 | 15 ± 3.1 | 10 ± 4.2 | 6 ± 2.9 | resistance (315/sc5.9 cells; 315/sc5.9 vs parental KB-31): 3.1 fold; resistance profile in words (EA150 cells): very little resistance; IC50 (MDA-MB-435 cells; MTS, 72 hours drug, Table 1): 2 ± 0.8 nM
C/C=C/C[C@@H](C)C(=O)[C@H]1C(=O)N[C@@H](C(C)C)C(=O)N(C)CC(=O)N(C)[C@@H](CC(C)C)C(=O)N[C@@H](C(C)C)C(=O)N(C)[C@@H](CC(C)C)C(=O)N[C@@H](C)C(=O)N[C@H](C)C(=O)N(C)[C@@H](CC(C)C)C(=O)N(C)[C@@H](CC(C)C)C(=O)N(C)[C@@H](C(C)C)C(=O)N1C [PSC-833, [3′-Desoxy-3′-oxo-MeBmt]^1-[Val]^2-Ciclosporin] |  |  |  |  |  |  |  |  |  |  |  |  |  | effect on resistance to TAXOL (MDA/T0.3 cells [5]): reversed; effect on resistance to epothilone A (EA20 cells [6]): no effect
CC(=O)O[C@H]1C(=O)[C@@]2(C)[C@H]([C@H](OC(=O)c3ccccc3)[C@]3(O)C[C@H](OC(=O)[C@H](O)[C@@H](NC(=O)c4ccccc4)c4ccccc4)C(C)=C1C3(C)C)[C@]1(OC(C)=O)CO[C@@H]1C[C@@H]2O [Paclitaxel, paclitaxel] | 23 ± 4 | 98.3 | either partially or fully cross-resistant; also recorded: full cross-resistance | 1.4 | 200.1 | either partially or fully cross-resistant; also recorded: full cross-resistance | able to substitute for epothilone A | 209.6 | resistant | 13 ± 3.1 | 34 ± 2.6 | 27 ± 3.1 | 22 ± 4 | IC50 (EA40 cells; P-gp substrates, Table 2): 21 ± 3 nM; resistance profile in words (EA40 cells; EA40 vs MDA-MB-435 / EA150): equally resistant; resistance profile in words (315/sc5.9 cells; 315/sc5.9 vs parental KB-31): marginal cross-resistance; IC50 (MDA-MB-435 cells; Homo sapiens, MTS, 72 hours drug, Table 1): 7.5 ± 3 nM; IC50 (MDA-MB-435 cells; Homo sapiens, P-gp substrates, Table 2): 7.5 ± 3 nM; IC50 (MDA/T0.3 cells [7]): 540 ± 100 nM
COc1cc2c(c(OC)c1OC)-c1ccc(OC)c(=O)cc1[C@@H](NC(C)=O)CC2 [colchicine] |  |  |  |  |  |  |  |  |  |  |  |  |  | relative resistance compared to KB-31 cells (KB-8511 cells [8]): ~40 fold
